The record followed here is US8680155B2, “Synthesis and antitumor activity of novel bis(benzylidene-benzenamine)disulfides” (Kaohsiung Medical University, priority 2011, dated 2014).

One assay has as its system Cal-27. The assay can be described thus: MTT survival, Cal-27 oral cancer. The note with it: Cal-27, 10 μM. It counts as cell-based, human. As to the method: (§1) Next, in vitro cytotoxicity of the multiple compounds in various cell lines was evaluated, which also was performed using MTT colorimetric assay. […] Comparing breast cancer cells MCF-7 with other cancer cells, most selected compounds had higher inhibition activity to MCF-7 cells. Therefore, breast cancer cells MCF-7 were chosen to be the research target in the following experiments.

The test system of a further assay is 293T. The assay can be described thus: MTT survival, 293T kidney cancer. It is filed as cell-based, human. The procedure: as §1
A further assay concerns H1335. The assay can be described thus: MTT survival, H1335 lung cancer. It counts as cell-based, human. Particulars: H1335, 10 μM. As to the method:
as §1

Another assay relates to A375. As to the kind of experiment: MTT survival, A375 melanoma. It counts as cell-based, human. The note with it: A375, 10 μM. The procedure: as §1
The next assay deals with A549. The assay can be described thus: MTT survival, A549 lung cancer. It is filed as cell-based, human. Particulars: A549, 10 μM. The procedure: as §1
The next assay relates to Ca-922. As to the kind of experiment: MTT survival, Ca-922 oral cancer. It counts as cell-based, human. The note with it: Ca-922, 10 μM. As to the method: as §1
Another assay concerns A2058. The assay can be described thus: MTT survival, A2058 melanoma. It counts as cell-based, human. Particulars: A2058, 10 μM. As to the method: as §1
A further assay deals with MCF-7. The assay can be described thus: MTT survival, MCF-7 breast cancer. It counts as cell-based, human. The note with it: MCF-7, 10 μM. As to the method:
as §1

Assay [1] has as its system breast cancer cells MCF-7. The assay can be described thus: Cell cycle analysis by flow cytometry (PI staining). The note with it: MCF-7, 5 μM, 24 hours; control 11.54%. It is filed as cell-based, human. As to the method: This experiment was performed by treating breast cancer cells MCF-7 with compounds, and then cell cycle was analyzed using flow cytometry known by the skilled person in the art. Firstly, breast cancer cells MCF-7 were treated with the prepared compounds (5 μM) for 24 hours and stained with propidium iodide (PI). Approximately 10000 cells from each sample were analyzed with FACScan flow cytometer and software. […] The sub-G1 DNA Peaks for compounds 4, 5, 7, 18, 21, 23 and 24 were 20.64%, 17.92%, 26.22%, 11.95%, 19.85%, 4.35% and 33.89% respectively (data not shown), while the sub-G1 DNA peak for control (without any drug treatment) was 11.54%.

The next assay deals with mouse melanoma cells B16. The assay can be described thus: MTT growth inhibition on murine melanoma cells (FIG. 1). It is filed as cell-based. Particulars: 10 μM, 48 hours. The procedure: In addition, for recognizing whether the prepared disulfides had cytotoxicity to normal cells and murine cells, human dermal fibroblasts and mouse melanoma cells B16 were selected as the models using MTT colorimetric assay. First, fibroblasts or B16 cells were seeded in 96-well culture plate at 2500 cells per well and cultivated overnight until cell attachment. Each compound (10 μM) was added into the culture media in triplicate and incubated for 48 hours, and finally MTT reagent was added into each well to detect absorbance.
Please refer to FIG. 1, which illustrates the growth inhibition of various compounds to human dermal fibroblast and B16 cells.

For the molecule `Cc1ccc(N=C(SSC(=Nc2ccc(C)c([N+](=O)[O-])c2)c2ccc(C(F)(F)F)cc2)c2ccc(C(F)(F)F)cc2)cc1[N+](=O)[O-]` [Compound 17], the “Survival (% control) of compound (10 μM)” value in the assay on Cal-27 is on record as 107.1 ± 0.08 % control; in the assay with 293T, 75.3 ± 0.21 % control; with H1335, 81.4 ± 0.08 % control; in the assay with A375, 103.2 ± 0.02 % control; in the assay on A549 it was 76.9 ± 0.07 % control; with Ca-922, 82.1 ± 0.07 % control.
As to `O=[N+]([O-])c1ccc(C(=Nc2ccc(Cl)cc2)SSC(=Nc2ccc(Cl)cc2)c2ccc([N+](=O)[O-])cc2)cc1` [Compound 5], the “Survival (% control) of compound (10 μM)” value in the assay with Cal-27 is on record as 100.1 ± 0.07 % control; with 293T it was 70.9 ± 0.24 % control; with H1335, 75.8 ± 0.10 % control; in the assay with A375, 79.4 ± 0.11 % control; in the assay with A2058, 97.5 ± 0.02 % control; in the assay with A549 it was 82.4 ± 0.06 % control. Also, the “Survival (% control) of compound (10 μM)” value stood at 54.3 ± 0.32 % control in the assay with MCF-7 and 79.4 ± 0.08 % control in the assay on Ca-922. Moreover, in assay [1], the “sub-G1 DNA peak” value is on record as 17.92%.
Regarding `Cc1cc(C(=Nc2ccccc2)SSC(=Nc2ccccc2)c2ccc([N+](=O)[O-])c(C)c2)ccc1[N+](=O)[O-]` [Compound 1], the “Survival (% control) of compound (10 μM)” value in the assay with Cal-27 is listed as 100.9 ± 0.09 % control; in the assay with 293T it was 76.5 ± 0.19 % control; with H1335 it was 69.8 ± 0.13 % control; in the assay with A375 it was 90.3 ± 0.05 % control; with A549, 71.5 ± 0.09 % control; in the assay on Ca-922, 80.8 ± 0.08 % control.
In the case of `O=[N+]([O-])c1cc(N=C(SSC(=Nc2ccc(F)c([N+](=O)[O-])c2)c2ccc(C(F)(F)F)cc2)c2ccc(C(F)(F)F)cc2)ccc1F` [Compound 23], the “Survival (% control) of compound (10 μM)” value was 92.4 ± 0.16 % control with Cal-27; 57.8 ± 0.33 % control with 293T; 80.2 ± 0.08 % control with H1335; 94.3 ± 0.03 % control in the assay on A375; 93.2 ± 0.04 % control in the assay on A2058; 64.4 ± 0.12 % control in the assay on A549. Further, the results for the “Survival (% control) of compound (10 μM)” value with MCF-7 and in the assay with Ca-922 were 57.1 ± 0.30 % control and 65.8 ± 0.14 % control, respectively. For the same molecule, the “growth inhibition / apoptosis in murine melanoma B16” value in the assay with mouse melanoma cells B16 was “significantly made”. In assay [1], the “sub-G1 DNA peak” value amounted to 4.35%.
Regarding `Cc1cc(C(=Nc2ccc(Cl)cc2)SSC(=Nc2ccc(Cl)cc2)c2ccc([N+](=O)[O-])c(C)c2)ccc1[N+](=O)[O-]` [Compound 7], the “Survival (% control) of compound (10 μM)” value came to 101.7 ± 0.09 % control with Cal-27; 71.2 ± 0.23 % control with 293T; 67.4 ± 0.13 % control with H1335; 92.4 ± 0.04 % control in the assay with A375; 99.6 ± 0.02 % control in the assay on A2058; 78.7 ± 0.07 % control with A549. The “Survival (% control) of compound (10 μM)” value in the assay on MCF-7 is listed as 51.7 ± 0.34 % control; in the assay on Ca-922, 96.2 ± 0.02 % control. The “sub-G1 DNA peak” value in assay [1] is given as 26.22%.
Take `Cc1ccc([N+](=O)[O-])cc1N=C(SSC(=Nc1cc([N+](=O)[O-])ccc1C)c1ccc(F)cc1)c1ccc(F)cc1` [Compound 21]: the “Survival (% control) of compound (10 μM)” value came to 76.6 ± 0.20 % control in the assay on Cal-27; 32.8 ± 0.52 % control in the assay with 293T; 80.6 ± 0.08 % control in the assay on H1335; 81.1 ± 0.10 % control in the assay on A375; 76.3 ± 0.15 % control with A2058; 62.1 ± 0.12 % control in the assay on A549. For the same molecule, the results for the “Survival (% control) of compound (10 μM)” value in the assay on MCF-7 and in the assay on Ca-922 were 13.8 ± 0.60 % control and 66.7 ± 0.13 % control, respectively. Also, the “sub-G1 DNA peak” value in assay [1] worked out at 19.85%.
In the case of `O=[N+]([O-])c1ccc(C(=Nc2ccc(C(F)(F)F)cc2)SSC(=Nc2ccc(C(F)(F)F)cc2)c2ccc([N+](=O)[O-])cc2)cc1` [Compound 4], the “Survival (% control) of compound (10 μM)” value in the assay on Cal-27 was determined as 102.5 ± 0.06 % control; in the assay with 293T, 64.6 ± 0.28 % control; with H1335, 66.0 ± 0.14 % control; in the assay on A375 it was 84.6 ± 0.08 % control; in the assay with A2058 it was 92.6 ± 0.05 % control; with A549 it was 65.4 ± 0.11 % control. Also, the “Survival (% control) of compound (10 μM)” value with MCF-7 was 59.6 ± 0.28 % control; in the assay with Ca-922, 80.1 ± 0.08 % control. Further, in assay [1], the “sub-G1 DNA peak” value was found to be 20.64%.
For the molecule `Cc1c(N=C(SSC(=Nc2cccc([N+](=O)[O-])c2C)c2ccc(F)cc2)c2ccc(F)cc2)cccc1[N+](=O)[O-]` [Compound 18], the “Survival (% control) of compound (10 μM)” value stood at 94.9 ± 0.07 % control in the assay on Cal-27; 71.1 ± 0.23 % control in the assay with 293T; 70.0 ± 0.13 % control in the assay on H1335; 91.5 ± 0.04 % control in the assay on A375; 95.9 ± 0.02 % control with A2058; 75.5 ± 0.08 % control with A549. Moreover, the “Survival (% control) of compound (10 μM)” value was 33.1 ± 0.47 % control in the assay with MCF-7 and 79.4 ± 0.09 % control in the assay with Ca-922. Also, in [1], the “sub-G1 DNA peak” value was 11.95%.
